The values that follow come from patent US8859541B2, “6-alkynylpyridines” (Boehringer Ingelheim International GmbH, priority 2012, dated 2014).

What is called IC50 is the concentration that inhibits the measured activity by half. A higher IC50 goes with lower potency.

T1 sequence (P98170 241-356): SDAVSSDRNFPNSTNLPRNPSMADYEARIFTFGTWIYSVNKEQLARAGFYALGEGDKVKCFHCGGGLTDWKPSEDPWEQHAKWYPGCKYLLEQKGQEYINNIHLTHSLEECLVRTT

The experiment addresses T1, XIAP BIR3 (Homo sapiens, UniProt P98170).
T1 construct: covering amino acids 241 to 356; XIAP BIR3; made in house; host or cells: E. coli
Nature of the experiment: XIAP BIR3 binding assay (DELFIA), displacement of SMAC peptide. The note with it: GST-fusion BIR3 domain (aa 241 to 356) 10 nM, SMAC peptide 10 nM; activity of the (S)-isomers. On the procedure: Biological Methods XIAP BIR3 and cIAP1 BIR3 Binding Assays (DELFIA)
Peptide […]-Lys(Biotin), representing the N-terminus of mature human SMAC (SMAC peptide), was used as interaction partner in the protein-peptide interaction assay.
BIR3 domains (10 nM) were incubated with SMAC peptide (10 nM) in Assay Buffer (50 mM Tris, 120 mM NaCl, 0.1% BSA, 1 mM DTT, 0.05% TritonX100) for one hour at room temperature in the presence of inhibitiory compounds. The assay mixture was transferred to a strepatvidin coated plate and incubated for one hour at room temperature to allow binding of the biotinylated peptide and associated BIR3 domains to the plate. After several washing steps Eu labeled anti-GST antibody (e.g. Perkin Elmer DELFIA Eu-N1-antiGST AD0250) was added to detect BIR3 domain-SMAC peptide interactions according to Perkin Elmer's instructions. […] Time resolved Europium fluoresecence was measured in a Wallac Victor using Standard assay settings.
DELFIA assay results were plotted against compound concentrations and Software GraphPad Prizm was used to calculate half maximal inhibitory concentrations (IC50 values).
In turn, `CNC(C)C(=O)Nc1ccc(-c2cccc(-c3ccccc3)c2)c(C#Cc2ccccc2)n1` (stereo not drawn) [Example 150, 2-(methylamino)-N-[6-(2-phenyl-ethynyl)-5-(3-phenylphenyl)-pyridin-2-yl]propanamide] registered an IC50 of 2450 nM.
To `CC(N)C(=O)Nc1ccc(-c2cccc3cccnc23)c(C#Cc2ccccc2)n1` (stereo not drawn) [Example 135, 2-amino-N-[6-(2-phenylethynyl)-5-quinolin-8-ylpyridin-2-yl]-propanamide] belongs 490 nM; to `CNC(C)C(=O)Nc1ccc(-c2cncnc2)c(C#Cc2ccc3ncccc3c2)n1` (stereo not drawn) [Example 19, 2-(methylamino)-N-[5-pyrimidin-5-yl-6-(2-quinolin-6-ylethynyl)pyridin-2-yl]-propanamide], 867 nM; to `CNC(=O)c1ccc(C#Cc2nc(NC(=O)C(C)NC)ccc2-c2c(C)nc3ccccn23)cn1` (stereo not drawn) [Example 62, N-methyl-5-[2-[6-[[2-(methyl-amino)propanoyl]amino]-3-(2-methylimidazo[1,2-a]pyridin-3-yl)pyridin-2-yl]ethynyl]pyridine-2-carboxamide], 620 nM.
To `CC(N)C(=O)Nc1cccc(C#Cc2ccc3ccccc3c2)n1` (stereo not drawn) [Example 242, 2-amino-N-[6-(2-naphthalen-2-ylethynyl)pyridin-2-yl]propanamide] belongs 4230 nM.
In the case of `COc1cccc(C#Cc2cccc(NC(=O)C(C)N)n2)c1` (stereo not drawn) [Example 220, 2-amino-N-[6-[2-(3-methoxyphenyl)ethynyl]pyridin-2-yl]propanamide], the IC50 was determined as 2160 nM.
The value for `CC(N)C(=O)Nc1cccc(C#Cc2ccc(F)c(F)c2)n1` (stereo not drawn) [Example 212, 2-amino-N-[6-[2-(3,4-difluorophenyl)ethynyl]pyridin-2-yl]propanamide] was 3060 nM; that for `CC(N)C(=O)Nc1ccc(-c2ccccc2C(F)(F)F)c(C#Cc2ccccc2)n1` (stereo not drawn) [Example 110, 2-amino-N-[6-(2-phenylethynyl)-5-[2-(trifluoromethyl)phenyl]-pyridin-2-yl]propanamide] was 3190 nM.
The value for `CNC(C)C(=O)Nc1ccc(-c2ccc3c(c2)C(=O)CCC3)c(C#Cc2ccccc2)n1` (stereo not drawn) [Example 178, 2-(methylamino)-N-[5-(8-oxo-6,7-dihydro-5H-naphthalen-2-yl)-6-(2-phenylethynyl)pyridin-2-yl]-propanamide] was 214 nM; that for `CNC(C)C(=O)Nc1ccc(-c2cnccc2C#N)c(C#Cc2ccc(C)cc2)n1` (stereo not drawn) [Example 148, N-[5-(4-cyanopyridin-3-yl)-6-[2-(4-methylphenyl)ethynyl]pyridin-2-yl]-2-(methylamino)propan-amide] was 416 nM; that for `CNC(C)C(=O)Nc1ccc(-c2c(C)nc3ccccn23)c(C#Cc2ccc(-c3ccncc3)cc2)n1` (stereo not drawn) [Example 91, 2-(methylamino)-N-[5-(2-methylimidazo[1,2-a]pyridin-3-yl)-6-[2-(4-pyridin-4-ylphenyl)-ethynyl]pyridin-2-yl]propan-amide] was 267 nM.
To `CC(N)C(=O)Nc1cccc(C#Cc2cccc(C(=O)OCC3CCOCC3)c2)n1` (stereo not drawn) [Example 214, oxan-4-ylmethyl 3-[2-[6-[[2-aminopropanoyl]-amino]pyridin-2-yl]ethynyl]benzoate] belongs 7380 nM; to `CNC(C)C(=O)Nc1ccc(-c2cncc(N)c2)c(C#Cc2ccccc2)n1` (stereo not drawn) [Example 128, N-[5-(5-aminopyridin-3-yl)-6-(2-phenylethynyl)pyridin-2-yl]-2-(methylamino)propanamide], 101 nM.
In turn, `CNC(C)C(=O)Nc1ccc(-c2cncnc2)c(C#Cc2ccc(-c3ccccn3)s2)n1` (stereo not drawn) [Example 8, 2-(methylamino)-N-[6-[2-(5-pyridin-2-ylthiophen-2-yl)-ethynyl]-5-pyrimidin-5-ylpyridin-2-yl]propanamide] yielded an IC50 of 351 nM.
The value for `CNC(C)C(=O)Nc1ccc(-c2c(C)nc3ccccn23)c(C#Cc2ccc(OC)c3ncccc23)n1` (stereo not drawn) [Example 85, N-[6-[2-(8-methoxyquinolin-5-yl)ethynyl]-5-(2-methyl-imidazo[1,2-a]pyridin-3-yl)-pyridin-2-yl]-2-(methylamino)-propanamide] was 259 nM; that for `CNC(C)C(=O)Nc1ccc(-c2c(C)ncn2Cc2ccccc2)c(C#Cc2ccccc2)n1` (stereo not drawn) [Example 196, N-[5-(3-benzyl-5-methylimidazol-4-yl)-6-(2-phenylethynyl)pyridin-2-yl]-2-(methylamino)propan-amide] was 609 nM.
Turning to `CCc1ccccc1-c1ccc(NC(=O)C(C)NC)nc1C#Cc1ccccc1` (stereo not drawn) [Example 124, N-[5-(2-ethylphenyl)-6-(2-phenyl-ethynyl)pyridin-2-yl]-2-(methyl-amino)propanamide], the IC50 was 2840 nM. Compared with the last compound, the IC50 is about 4.7-fold higher.
To `CNC(C)C(=O)Nc1ccc(-c2cnc(SC)nc2)c(C#Cc2ccc3ccccc3c2)n1` (stereo not drawn) [Example 158, 2-(methylamino)-N-[5-(2-methylsulfanylpyrimidin-5-yl)-6-(2-naphthalen-2-ylethynyl)-pyridin-2-yl]propanamide] belongs 772 nM; to `CNC(C)C(=O)Nc1ccc(-c2cccc3[nH]ncc23)c(C#Cc2ccccc2)n1` (stereo not drawn) [Example 137, N-[5-(1H-indazol-4-yl)-6-(2-phenylethynyl)pyridin-2-yl]-2-(methylamino)propanamide], 155 nM.
Regarding `CC(N)C(=O)Nc1cccc(C#Cc2cncs2)n1` (stereo not drawn) [Example 239, 2-amino-N-[6-[2-(1,3-thiazol-5-yl)ethynyl]pyridin-2-yl]propanamide], the IC50 was 4580 nM.
To `CC(N)C(=O)Nc1cccc(C#CCc2ccccc2)n1` (stereo not drawn) [Example 224, 2-amino-N-[6-(3-phenylprop-1-ynyl)pyridin-2-yl]propanamide] belongs 3560 nM; to `CNC(C)C(=O)Nc1ccc(-c2ccc(F)nc2)c(C#Cc2ccccc2)n1` (stereo not drawn) [Example 146, N-[5-(6-fluoropyridin-3-yl)-6-(2-phenylethynyl)pyridin-2-yl]-2-(methylamino)propanamide], 257 nM; to `CNC(C)C(=O)Nc1ccc(-c2cc(C(=O)OC)ccc2OC)c(C#Cc2ccccc2)n1` (stereo not drawn) [Example 131, methyl 4-methoxy-3-[6-[[2-(methylamino)propanoyl]amino]-2-(2-phenylethynyl)pyridin-3-yl]-benzoate], 305 nM.
The compound `CNC(C)C(=O)Nc1ccc(-c2c(F)ccc3ccc(C)nc23)c(C#Cc2ccccc2)n1` (stereo not drawn) [Example 162, N-[5-(7-fluoro-2-methylquinolin-8-yl)-6-(2-phenylethynyl)pyridin-2-yl]-2-(methylamino)propan-amide] returned an IC50 of 1820 nM. This IC50 lies about 6-fold higher than the previous one.
To `CNC(C)C(=O)Nc1ccc(-c2c(C)nc3ccccn23)c(C#Cc2ccc(-c3ccc(OC)cc3)cc2)n1` (stereo not drawn) [Example 65, N-[6-[2-[4-(4-methoxyphenyl)-phenyl]ethynyl]-5-(2-methyl-imidazo[1,2-a]pyridin-3-yl)-pyridin-2-yl]-2-(methylamino)-propanamide] belongs 1190 nM; to `CNC(C)C(=O)Nc1ccc(-c2cnccc2OC)c(C#Cc2ccc3ccccc3c2)n1` (stereo not drawn) [Example 154, N-[5-(4-methoxypyridin-3-yl)-6-(2-naphthalen-2-ylethynyl)-pyridin-2-yl]-2-(methylamino)-propanamide], 569 nM.
The value for `CNC(C)C(=O)Nc1ccc(-c2ccnc3ccccc23)c(C#Cc2cc(F)cc(F)c2)n1` (stereo not drawn) [Example 152, N-[6-[2-(3,5-difluorophenyl)-ethynyl]-5-quinolin-4-ylpyridin-2-yl]-2-(methylamino)propanamide] was 431 nM.
